This note sets out measurements from patent US8349850B2, “Heterocyclic compounds and uses thereof in the treatment of sexual disorders” (ATIR Holding S.A., priority 2006, dated 2013).

Structures are written as SMILES.

Assay [1] concerns the target T1, D4.4 receptor (Homo sapiens, UniProt P21917).
T1 construct: expressed in transfected cells; host or cells: CHO cells
T1 sequence (P21917 1-419): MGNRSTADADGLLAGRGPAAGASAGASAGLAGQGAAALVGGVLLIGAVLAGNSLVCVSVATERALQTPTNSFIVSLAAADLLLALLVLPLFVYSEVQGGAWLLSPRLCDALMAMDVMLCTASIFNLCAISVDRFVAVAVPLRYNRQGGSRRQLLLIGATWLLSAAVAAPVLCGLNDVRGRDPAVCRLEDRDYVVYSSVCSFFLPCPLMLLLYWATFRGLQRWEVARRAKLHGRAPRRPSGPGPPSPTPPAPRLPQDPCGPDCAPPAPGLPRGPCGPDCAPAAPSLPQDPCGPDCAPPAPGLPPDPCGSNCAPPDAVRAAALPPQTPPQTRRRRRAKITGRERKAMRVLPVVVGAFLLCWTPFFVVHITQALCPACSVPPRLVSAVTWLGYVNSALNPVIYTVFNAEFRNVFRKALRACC
Put plainly: Competitive binding to D4.4 dopamine receptor ([3H]-YM-09151-2 radioligand). The note with it: 5 mcM compound; human recombinant D4.4 in CHO cells; na = no activity. As for the experimental part: Compounds were assayed for competitive binding to D2 SHORT and D4.4 type dopamine receptors. Both receptor types are expressed as human recombinant proteins in CHO cells, as described, for example, in Jarvis et al. (1973); Van Tol et al. (1991) and Van Tol et al. (1992).
Determination of binding to D4.4 receptor was performed using [^3H]-YM-09151-2 (70-87 Ci/mmol, 0.3 nM), as a radioligand, in with the presence of various concentrations of the tested compound. Reactions were carried out in 50 mM TRIS-HCl (pH 7.4) containing 5 mM MgCl2, 5 mM EDTA, 5 mM KCl and 1.5 mM CaCl2, for 60 minutes at 22° C. The reaction was terminated by rapid vacuum filtration onto glass fiber filters. Radioactivity trapped onto the filters was determined (counted) and compared to control values in order to accurately evaluate any interaction of the tested compound(s) with the cloned dopamine D4.4 binding site.

Assay [2] has as its target T2, PDE5 partially purified from human platelets (Homo sapiens, UniProt O76074).
T2 construct: PDE5 partially purified from human platelets was used; from tissue; host or cells: human platelets
The assay is described as follows: Phosphodiesterase Type 5 (PDE5) Inhibition. In kind it is biochemical. The note with it: for inhibition at 50 µM: 50 mcM compound, 1 μM cGMP; for IC50 / PDE5 IC50, 10^−6 M: 'active' = observed activity not quantitated; for IC50: read-out: PDE5 IC50, 10^−6 M. As to the method:
Phosphodiesterase type 5 (PDE5) catalyzes the conversion of cAMP or cGMP to their respective monophosphate forms. PDE5 has a high Km for cAMP and a low Km for cGMP, is insensitive to Ca^2+/calmodulin or cGMP regulation, and is relatively sensitive to inhibitors such as dipyridamol and zaprinast.
PDE5 partially purified from human platelets was used. The tested compound (at a concentration of 0.1, 1, 20 or 50 μM) and/or vehicle was incubated with 3.5 μg enzyme and 1 μM cGMP containing 0.01 μM [^3H]cGMP in Tris buffer pH 7.5 for 20 minutes at 30° C. Since enzyme activity may change from lot to lot, the concentration used was adjusted if required.
The reaction was terminated by boiling the reaction mixture for 2 minutes. The obtained GMP was then converted to guanosine by addition of 10 mg/ml snake venom nucleotidase and further incubation at 30° C. for 10 minutes. Unhydrolyzed cGMP was bound to AG1-X2 resin, and remaining [^3H]Guanosine in the aqueous phase was quantitated by scintillation counting.

By inhibition is commonly meant the change of the read-out against control, counted positive when it falls. The IC50 is the concentration needed to halve the response being measured.

In the case of `COc1ccccc1C1=CCN(Cc2nc3ccccc3c(=O)[nH]2)CC1` [Compound B-31, 2-((5,6-dihydro-4-(2-methoxyphenyl)pyridin-1(2H)-yl)methyl)quinazolin-4(3H)-one], in assay [1], the inhibition at 5 µM stood at 74%.

For the compound `O=c1[nH]c(CN2CCCC(c3ccccn3)C2)nc2ccccc12` (centres unmarked) [Compound B-83, 2-((3-(pyridin-2-yl)piperidin-1-yl)methyl)quinazolin-4(3H)-one], the inhibition at 5 µM in assay [1] amounted to 57%. With `O=c1[nH]c(CN2CCN(c3ncccn3)CC2)nc2ccccc12` [Compound 123, 2-[(4-pyrimidin-2-ylpiperazin-1-yl)methyl]quinazolin-4(3H)-one], in assay [2], the inhibition at 50 µM was determined as 61% and the IC50 turned out to be 26 µM. The inhibition at 5 µM in assay [1] amounted to 13%.

In the case of `O=c1[nH]c(CN2CCN(c3ncccc3OCc3ccccc3)CC2)nc2ccccc12` [Compound B-10, 2-((4-(3-(benzyloxy)pyridin-2-yl)piperazin-1-yl)methyl)quinazolin-4(3H)-one], in assay [2], the inhibition at 50 µM stood at 40% and the “PDE5 IC50, 10^−6 M” value is on record as “active”. In addition, the inhibition at 5 µM in assay [1] came to 60%. In the case of `CCCOc1cccnc1N1CCN(Cc2nc3ccccc3c(=O)[nH]2)CC1` [Compound B-14, 2-((4-(3-propoxypyridin-2-yl)piperazin-1-yl)methyl)quinazolin-4(3H)-one], in assay [2], the inhibition at 50 µM was determined as 70% and the concentration for half-maximal inhibition (IC50) amounted to 9 µM. Moreover, the “exhibit both PDE5 inhibition and D4 agonist activity (dual activity)” value in assay [2] (referring to Table 2 (PDE5 and D4 assays)) is “both PDE5 inhibition and D4 agonist activity”. Moreover, the inhibition at 5 µM in assay [1] was determined as 81%. For `O=c1[nH]c(CN2CCN(c3cccc(O)c3)CC2)nc2cc(Cl)ccc12` [Compound B-3], the “D4.4(h) Competitive Binding, % at 5 mcM” value in assay [1] came out at 82%. On to `Cc1cccc2nc(CN3CCN(c4cccc(O)c4)CC3)[nH]c(=O)c12` [Compound B-9, 2-((4-(3-hydroxyphenyl)piperazin-1-yl)methyl)-5-methylquinazolin-4(3H)-one], for which, in assay [2], the inhibition at 50 µM came out at 47% and the “PDE5 IC50, 10^−6 M” value is given as “active”. For the same compound, the inhibition at 5 µM in assay [1] was determined as 89%. For the compound `CCOc1ccccc1N1CCN(Cc2nc3cc(Cl)ccc3c(=O)[nH]2)CC1` [Compound B-45, 7-chloro-2-((4-(2-ethoxyphenyl)piperazin-1-yl)methyl)quinazolin-4(3H)-one], the inhibition at 5 µM in assay [1] amounted to 46%.

In the case of `COc1ccccc1C1=CCN(Cc2nc3cc(Cl)ccc3c(=O)[nH]2)CC1` [Compound B-39, 7-chloro-2-((5,6-dihydro-4-(2-methoxyphenyl)pyridin-1(2H)-yl)methyl)quinazolin-4(3H)-one], the inhibition at 5 µM in assay [1] is 95%. `O=c1[nH]c(CN2CC=C(c3ccccc3)CC2)nc2cc(Cl)ccc12` [Compound B-47, 7-chloro-2-((5,6-dihydro-4-phenylpyridin-1(2H)-yl)methyl)quinazolin-4(3H)-one]: in assay [1], the inhibition at 5 µM was determined as 63%.

Take `O=c1[nH]c(CN2CC=C(c3ccccn3)CC2)nc2cc(Cl)ccc12` [Compound B-71, 7-chloro-2-((5,6-dihydro-4-(pyridin-2-yl)pyridin-1(2H)-yl)methyl)quinazolin-4(3H)-one]: in assay [2], the inhibition at 50 µM was determined as 63% and the IC50 was determined as 27 µM. `COc1cc2nc(CN3CCN(c4cccc(O)c4)CC3)[nH]c(=O)c2cc1OC` [Compound B-4, 2-((4-(3-hydroxyphenyl)piperazin-1-yl)methyl)-6,7-dimethoxyquinazolin-4(3H)-one]: in assay [2], 50 µM produced 25% inhibition and the “PDE5 IC50, 10^−6 M” value is “active”. For the same compound, in assay [1], the inhibition at 5 µM was determined as 91%. Regarding `N#Cc1ccccc1N1CCN(Cc2nc3ccccc3[nH]c2=O)CC1` [Compound B-34, 2-(4-((1,2-dihydro-2-oxoquinoxalin-3-yl)methyl)piperazin-1-yl)benzonitrile], in assay [1], the inhibition at 5 µM worked out at 84%. Turning to `CCn1c(=O)c2[nH]c(CN3CCN(c4cccc(O)c4)CC3)nc2n(CC)c1=O` [Xan1, 1,3-diethyl-8-((4-(3-hydroxyphenyl)piperazin-1-yl)methyl)-1H-purine-2,6(3H,7H)-dione], the inhibition at 5 µM in assay [1] is 54%.

With `O=c1[nH]c(CN2CCN(c3cccc(O)c3)CC2)nc2cccc(F)c12` [Compound B-36, 5-fluoro-2-((4-(3-hydroxyphenyl)piperazin-1-yl)methyl)quinazolin-4(3H)-one], in assay [1], the inhibition at 5 µM is 82%. Regarding `O=c1[nH]c(CN2CCN(c3ccccn3)CC2)nc2nc[nH]c12` [Compound 409, 2-((4-(pyridin-2-yl)piperazin-1-yl)methyl)-1H-purin-6(7H)-one], in assay [2], the inhibition at 50 µM was found to be 24% and the “PDE5 IC50, 10^−6 M” value is reported as “active”. In addition, in assay [1], the inhibition at 5 µM was 8%. As for `COc1ccccc1N1CCN(Cc2nc3cc(Cl)ccc3c(=O)[nH]2)CC1` [Compound B-38, 7-chloro-2-((4-(2-methoxyphenyl)piperazin-1-yl)methyl)quinazolin-4(3H)-one], the inhibition at 5 µM in assay [1] is 65%. Regarding `O=c1c2ccccc2nc(CN2CCN(c3ncccn3)CC2)n1Cc1ccccc1` [Compound B-75, 3-benzyl-2-((4-(pyrimidin-2-yl)piperazin-1-yl)methyl)quinazolin-4(3H)-one], in assay [2], the inhibition at 50 µM amounted to 73% and the IC50 was 21 µM.

`CCOc1cccnc1N1CCN(Cc2nc3cc(Cl)ccc3c(=O)[nH]2)CC1` [Compound B-43, 7-chloro-2-((4-(3-ethoxypyridin-2-yl)piperazin-1-yl)methyl)quinazolin-4(3H)-one]: in assay [2], the inhibition at 50 µM came to 26% and the “PDE5 IC50, 10^−6 M” value is on record as “active”. With `O=c1[nH]c(CN2CCC(c3ccccc3)CC2)nc2ccccc12` [Compound B-51, 2-((4-phenylpiperidin-1-yl)methyl)quinazolin-4(3H)-one], the inhibition at 5 µM in assay [1] is 88%. On to `CCOc1cccnc1N1CCN(Cc2nc3ccccc3c(=O)[nH]2)CC1` [Compound B-13, 2-((4-(3-ethoxypyridin-2-yl)piperazin-1-yl)methyl)quinazolin-4(3H)-one], for which the inhibition at 5 µM in assay [1] was determined as 86%. For `O=c1[nH]c2ccccc2nc1CN1CCN(c2cccc(O)c2)CC1` [Compound B-37, 3-((4-(3-hydroxyphenyl)piperazin-1-yl)methyl)quinoxalin-2(1H)-one], the inhibition at 5 µM in assay [1] is 62%.

For `O=c1[nH]c(CN2CC=C(c3ccccn3)CC2)nc2ccccc12` [Compound 115, 2-(3′,6′-dihydro-2,4′-bipyridin-1′(2′H)-ylmethyl)quinazolin-4(3H)-one], the inhibition at 5 µM in assay [1] worked out at 66%. In the case of `O=c1[nH]c2ccccc2nc1CN1CCN(c2ncccn2)CC1` [Compound B-44, 3-((4-(pyrimidin-2-yl)piperazin-1-yl)methyl)quinoxalin-2(1H)-one], the inhibition at 5 µM in assay [1] was found to be 29%.

As for `O=c1[nH]c(CN2CCN(c3ccccn3)CC2)nc2ccccc12` [Compound 102, 2-[(4-pyridin-2-ylpiperazin-1-yl)methyl]quinazolin-4(3H)-one], in assay [2], the inhibition at 50 µM was 29% and the “PDE5 IC50, 10^−6 M” value is recorded as “active”.

As for `O=c1[nH]c2ccccc2nc1CN1CC=C(c2ccccc2)CC1` [Compound B-42, 3-((5,6-dihydro-4-phenylpyridin-1(2H)-yl)methyl)quinoxalin-2(1H)-one], the inhibition at 5 µM in assay [1] amounted to 62%.

In the case of `CCn1c(=O)c2[nH]c(CN3CC=C(c4ccccc4)CC3)nc2n(CC)c1=O` [Xan2], in assay [1], the inhibition at 5 µM is 25%.
